According to US4198504A, “[3-(Pyridinium)-7-(naphthyiridinyl carbonylamino)acetamido]cephalosporanic acid derivatives” (Bristol-Myers Company, priority 1978, dated 1980):
Read-outs that look alike come from different tables or passages of the source.

Tests used:
[1] = tested on: Staphylococcus aureus Smith; assay: In vivo efficacy, experimental infection in mice, intramuscular treatment, Staphylococcus aureus Smith; design: species or system Staphylococcus aureus (infected mice); conditions: im, 120 h, read-out: PD50 Staphylococcus aureus Smith
Description: (§1) The in vivo efficacy was evaluated by intramuscular treatment against three kinds of experimental infection in mice.
(§2) The in vivo tests were carried out using the following three pathogenic organisms:
Staphylococcus aureus Smith
(§3) Mice were challenged intraperitoneally with approximately a 100×LD50 dose of the pathogens in a 5% mucin suspension. The mice were treated with test compound by I.M. route immediately after the bacterial challenge.

[2] = tested on: Ent. cloacae (3), Pr. vulgaris (1), Pr. morganii (1), S. marcescen (1); assay: In vitro MIC, serial two-fold agar dilution, primary evaluation Gn-II (Ent. cloacae, Pr. vulgaris, Pr. morganii, S. marcescens); format: cell-based; conditions: CBPC = 100%, geometric mean of MICs
Description: (§4) Minimun inhibitory concentrations (MIC) were determined by the serial two-fold agar dilution method using Steers' apparatus on Mueller-Hinton agar plate against 31 test organisms for the primary screening and also against 64 strains of Pseudomonas aeruginosa for the secondary evaluation. The results are shown in Table 1 in terms of relative activity with respect to the standard compound CBPC (carbenicillin) which was set at 100%. In each group the calculation was based on the geometric mean of the observed MICs.
GnII = Ent. cloacae (3), Pr. vulgaris (1), Pr. morganii (1), S. marcescen

S. aureus = assay: In vitro MIC, serial two-fold agar dilution, primary evaluation Gp (S. aureus, 6 strains); format: cell-based; conditions: CBPC = 100%, geometric mean of MICs
Description: as §4
*GP = S. aureus (6 strains);

[3] = Antibiotic blood levels in mice following intramuscular administration (paper disc-agar diffusion, Escherichia coli NIHJ as assay organism); format: in vivo; conditions: mouse, im, I.M., 20 mg./kg.; for half-life: read-out: Blood level, Half-life; for Cmax: read-out: Blood level, Peak Concentration
Description: Antibiotic blood levels were determined in mice following intramuscular administration of the test compounds at 20 mg./kg. The blood samples were collected from the orbital sinuses into heparinized capillary tubes at 15, 30, 60 and 120 minutes after administration. The antibiotic concentration was determined by the paper disc-agar diffusion method using Escherichia coli NIHJ as the assay organism.

Pseudomonas aeruginosa = assay: In vitro MIC, serial two-fold agar dilution, secondary evaluation against Pseudomonas aeruginosa strains; format: cell-based; conditions: CBPC = 100%, geometric mean of MICs
Description: as §4

Escherichia coli Juhl = assay: In vivo efficacy, experimental infection in mice, intramuscular treatment, Escherichia coli Juhl; design: species or system Escherichia coli (infected mice); conditions: im, 120 h, read-out: PD50 Escherichia coli Juhl
Description: as §1, §2, §3

[4] = tested on: Pseudomonas aeruginosa A9843; assay: In vivo efficacy, experimental infection in mice, intramuscular treatment, Pseudomonas aeruginosa A9843; design: species or system Pseudomonas aeruginosa (infected mice); conditions: A9843, im, 120 h, read-out: PD50 Pseudomonas aeruginosa A9843
Description: as §1, §2
Pseudomonas aeruginosa A9843
as §3

[5] = tested on: E. coli (9), Klebsiella sp. (2), Pr. mirabilis (1), Sal. enteritidis (1); assay: In vitro MIC, serial two-fold agar dilution, primary evaluation Gn-I (E. coli, Klebsiella sp., Pr. mirabilis, Sal. enteritidis); format: cell-based; conditions: CBPC = 100%, geometric mean of MICs
Description: as §4
GnI = E. coli (9), Klebsiella sp. (2), Pr. mirabilis (1), Sal.

Ps. aeruginosa = assay: In vitro MIC, serial two-fold agar dilution, primary evaluation Ps (6 strains); format: cell-based; conditions: CBPC = 100%, geometric mean of MICs
Description: as §4
Ps. = Ps. aeruginosa (6).

[6] = I.M., 100×LD50 challenge i.p., 5 days

O=C([O-])C1=C(C[n+]2cccc(C(=O)O)c2)CSC2C(NC(=O)[C@H](NC(=O)c3cnc4cccnc4c3O)c3ccc(O)cc3)C(=O)N12 (some centres unmarked) [BB-S579]
ED50 [1, 6]: 2 mg/kg | In vitro relative activity, primary evaluation Gn-II (6) ([2]; Mueller-Hinton agar): 22% | In vitro relative activity, primary evaluation Gp (6) (S. aureus; Mueller-Hinton agar): 28% | half-life [3]: 75 min | Cmax [3]: 12000 ng/mL | In vitro relative activity, secondary, Pseudomonas aeruginosa (61-64) (Pseudomonas aeruginosa; 61-64 strains): 2780% | ED50 (Escherichia coli Juhl; [6]): 1.8 mg/kg | ED50 [4, 6]: 6.4 mg/kg | In vitro relative activity, primary evaluation Gn-I (13) ([5]; Mueller-Hinton agar): 230% | In vitro relative activity, primary evaluation Ps (6) (Ps. aeruginosa; Mueller-Hinton agar): 2880%

O=C(O)Cc1ccc[n+](CC2=C(C(=O)[O-])N3C(=O)C(NC(=O)[C@H](NC(=O)c4cnc5cccnc5c4O)c4ccc(O)cc4)C3SC2)c1 (stereo partly drawn) [BB-S580, 7-[D-α-(4-Hydroxy-1,5-naphthyridine-3-carboxamido)-α-(4-hydroxyphenyl)acetamido]-3-(3-carboxymethylpyridinium)methyl-3-cephem-4-carboxylate]
ED50 [1, 6]: 2.6 mg/kg | In vitro relative activity, primary evaluation Gn-II (6) ([2]; Mueller-Hinton agar): 33% | In vitro relative activity, primary evaluation Gp (6) (S. aureus; Mueller-Hinton agar): 27% | half-life [3]: 33 min | Cmax [3]: 16500 ng/mL | In vitro relative activity, secondary, Pseudomonas aeruginosa (61-64) (Pseudomonas aeruginosa; 61-64 strains): 1780% | ED50 (Escherichia coli Juhl; [6]): 1.2 mg/kg | ED50 [4, 6]: 6.4 mg/kg | In vitro relative activity, primary evaluation Gn-I (13) ([5]; Mueller-Hinton agar): 359% | In vitro relative activity, primary evaluation Ps (6) (Ps. aeruginosa; Mueller-Hinton agar): 2490%

O=C([O-])C1=C(C[n+]2ccc(C(=O)O)cc2)CSC2C(NC(=O)[C@H](NC(=O)c3cnc4cccnc4c3O)c3ccc(O)cc3)C(=O)N12 (stereo partly drawn) [BB-S584, 7-[D-α-(4-Hydroxy-1,5-naphthyridine-3-carboxamido)-α-(4-hydroxyphenyl)acetamido]-3-(4-carboxypyridinium)methyl-3-cephem-4-carboxylate]
ED50 [1, 6]: 7.6 mg/kg | In vitro relative activity, primary evaluation Gn-II (6) ([2]; Mueller-Hinton agar): 14% | In vitro relative activity, primary evaluation Gp (6) (S. aureus; Mueller-Hinton agar): 22% | half-life [3]: 81 min | Cmax [3]: 12500 ng/mL | In vitro relative activity, secondary, Pseudomonas aeruginosa (61-64) (Pseudomonas aeruginosa; 61-64 strains): 1180% | ED50 (Escherichia coli Juhl; [6]): 4.2 mg/kg | ED50 [4, 6]: 36 mg/kg | In vitro relative activity, primary evaluation Gn-I (13) ([5]; Mueller-Hinton agar): 166% | In vitro relative activity, primary evaluation Ps (6) (Ps. aeruginosa; Mueller-Hinton agar): 725%

O=C([O-])C1=C(C[n+]2ccccc2C(=O)O)CSC2C(NC(=O)[C@H](NC(=O)c3cnc4cccnc4c3O)c3ccc(O)cc3)C(=O)N12 (stereo partly drawn) [BB-S585, 7-[D-α-(4-Hydroxy-1,5-naphthyridine-3-carboxamido)-α-(4-hydroxyphenyl)acetamido]-3-(2-carboxypyridinium)methyl-3-cephem-4-carboxylate]
ED50 [1, 6]: 10 mg/kg | In vitro relative activity, primary evaluation Gn-II (6) ([2]; Mueller-Hinton agar): 4% | In vitro relative activity, primary evaluation Gp (6) (S. aureus; Mueller-Hinton agar): 20% | half-life [3]: 60 min | Cmax [3]: 5800 ng/mL | In vitro relative activity, secondary, Pseudomonas aeruginosa (61-64) (Pseudomonas aeruginosa; 61-64 strains): 466% | ED50 (Escherichia coli Juhl; [6]): 7.4 mg/kg | ED50 [4, 6]: 86 mg/kg | In vitro relative activity, primary evaluation Gn-I (13) ([5]; Mueller-Hinton agar): 53% | In vitro relative activity, primary evaluation Ps (6) (Ps. aeruginosa; Mueller-Hinton agar): 297%

O=C([O-])C1=C(C[n+]2cccc(S(=O)(=O)O)c2)CSC2C(NC(=O)[C@H](NC(=O)c3cnc4cccnc4c3O)c3ccc(O)cc3)C(=O)N12 (stereo partly drawn) [BB-S587, 7-[D-α-(4-Hydroxy-1,5-naphthyridine-3-carboxamido)-α-(4-hydroxyphenyl)acetamido]-3-(3-sulfopyridinium)methyl-3-cephem-4-carboxylate]
ED50 ([1]; Lot 2, I.M.): 3.7 mg/kg | In vitro relative activity, primary evaluation Gn-II (6) ([2]; Mueller-Hinton agar): 16% | In vitro relative activity, primary evaluation Gn-II (6) ([2]; Lot 2): 19% | In vitro relative activity, primary evaluation Gp (6) (S. aureus; Mueller-Hinton agar): 28% | In vitro relative activity, primary evaluation Gp (6) (S. aureus; Lot 2): 56% | half-life [3]: 40 min | Cmax [3]: 3000 ng/mL | In vitro relative activity, secondary, Pseudomonas aeruginosa (61-64) (Pseudomonas aeruginosa; 61-64 strains): 3380% | In vitro relative activity, secondary, Pseudomonas aeruginosa (61-64) (Pseudomonas aeruginosa; Lot 2): 3570% | ED50 (Escherichia coli Juhl; Lot 2, I.M.): 2.4 mg/kg | ED50 [4, 6]: 3.13 mg/kg | ED50 ([4]; Lot 2, I.M.): 2.2 mg/kg | In vitro relative activity, primary evaluation Gn-I (13) ([5]; Mueller-Hinton agar): 166% | In vitro relative activity, primary evaluation Gn-I (13) ([5]; Lot 2): 87% | In vitro relative activity, primary evaluation Ps (6) (Ps. aeruginosa; Mueller-Hinton agar): 2378% | In vitro relative activity, primary evaluation Ps (6) (Ps. aeruginosa; Lot 2): 3200%
